# What was measured:
# ABUTH (Velvetleaf) [1] = test: Postemergence herbicidal evaluation; type: in vivo, Abutilon theophrasti; conditions: postemergence
# Method in brief: (§1)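 Rate range approx. 0.0156–0.500 kg/ha. Foliar application at 40 psi to ~2-week seedlings; surfactant 0.5% TWEEN 20 in 50/50 acetone/water. Evaluation 4–5 wk post-treatment by 0–9 visual injury score, means of replicate tests.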
# [2] = tested on: IPOHE (Morningglory, Ivyleaf); test: Postemergence herbicidal evaluation; type: in vivo, Ipomoea hederacea; conditions: postemergence
# Method in brief: as §1
# SETVI (Foxtail, Green) = test: Postemergence herbicidal evaluation; type: in vivo, Setaria viridis; conditions: postemergence
# Method in brief: as §1
# [3] = tested on: GLXMAW (Soybean, Williams); test: Postemergence herbicidal evaluation; type: in vivo, Glycine max, (L.) Merr. cv Williams; conditions: postemergence
# Method in brief: as §1
# ZEAMX (Corn, Field) = test: Postemergence herbicidal evaluation; type: in vivo, Zea mays; conditions: postemergence
# Method in brief: as §1
# ABUTH (Velvetleaf) [4] = test: Preemergence herbicidal evaluation; type: in vivo, Abutilon theophrasti; conditions: rated 4-5 weeks after treatment
# Method in brief: (§2)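 Preemergence soil application of compound, sprayed in aqueous acetone at rates equivalent to about 0.0156 to 0.500 kg per hectare onto freshly sown cups. Plant response was judged by eye on a 0-9 scale four to five weeks later.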
# AMBEL (Ragweed, Common) = test: Preemergence herbicidal evaluation; type: in vivo, Ambrosia artemisifolia; conditions: rated 4-5 weeks after treatment
# Method in brief: as §2
# CASOB (Sicklepod) = test: Preemergence herbicidal evaluation; type: in vivo, Cassia obtusifolia; conditions: rated 4-5 weeks after treatment
# Text: (§3) Results of herbicide evaluation are expressed on a rating scale (0-9). The scale is based upon a visual observation of plant stand, vigor, malformation, size, chlorosis and overall plant appearance as compared with a control.
# (§4) The preemergence herbicidal activity of the test compounds of the present invention is exemplified by the following tests in which the seeds of a variety of monocotyledonous and dicotyledonous plants are separately mixed with potting soil and planted on top of approximately one inch of soil in separate pint cups. After planting, the cups are sprayed with the selected aqueous acetone solution containing test compound in sufficient quantity to provide the equivalent of about 0.0156 to 0.500 kg per hectare of test compound per cup. The treated cups are then placed on greenhouse benches, watered and cared for in accordance with conventional greenhouse procedures. From four to five weeks after treatment, the tests are terminated and each cup is examined and rated according to the rating system provided in Example 37.
# (§5) The compounds evaluated are reported by compound number given in Example 37.
# [5] = tested on: IPOHE (Morningglory, Ivyleaf); test: Preemergence herbicidal evaluation; type: in vivo, Ipomoea hederacea; conditions: rated 4-5 weeks after treatment
# Text: as §3, §4, §5
# ECHCG (Barnyardgrass) = test: Preemergence herbicidal evaluation; type: in vivo, Echinochloa crus-galli; conditions: rated 4-5 weeks after treatment
# Method in brief: as §2
# [6] = tested on: ECHORC (Watergrass (Calif.)); test: Preemergence weed control under flooded paddy conditions; type: in vivo, Echinochloa oryzoides; conditions: rated 3-4 weeks after treatment
# Method in brief: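 Seeds or propagules sown in silt loam kept flooded 1.5-3 cm; compounds in 50/50 acetone/water pipetted into flood water at about 0.0313 to 0.500 kg/ha. Greenhouse; visual 0-9 rating versus untreated control 3-4 weeks after treatment.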
# CYPSE (Flatsedge) = test: as above; type: in vivo, Cyperus serotinus; conditions: rated 3-4 weeks after treatment
# Protocol: as §3
# Preemergence herbicidal activity under flooded paddy conditions is determined as follows: plant seeds or propagating organs are planted in the top 0.5 cm of silt loam soil in 32 oz. plastic containers with a diameter of 10.5 cm and no drainage holes. Water is added to these containers and maintained at 1.5 to 3 cm above the soil surface for the duration of the experiment. The test compounds are applied as aqueous/acetone mixtures 50/50 v/v pipetted directly into the flood water to give the equivalent of about 0.0313 to 0.500 kg/ha of active ingredient. The treated containers are placed on greenhouse benches and cared for in accordance with conventional greenhouse procedures. Three to four weeks after treatment, the test is terminated and each container is examined and herbicidal effect rated according to the rating system provided in Example 37. The compounds evaluated are reported by compound number given in Example 37.
# Plant species employed in this example are reported by header abbreviation, common name and scientific name.
structure (smiles),measurement,setting,value
"COC(=O)COC(=O)CN1C(=O)CSC1=Nc1cc(-n2c(=O)cc(C(F)(F)F)n(C)c2=O)c(F)cc1Cl [Compound 108, 2-{{2-Chloro-5-[3,6-dihydro-3-methyl-2,6-dioxo-4-(trifluoromethyl)-1(2H)-pyrimidinyl]-4-fluorophenyl}imino}-4-oxo-3-thiazolidineacetic acid, ester with methyl glycolate]",Herbicidal rating ABUTH,ABUTH (Velvetleaf) [1]; rate 0.0158 kg/ha,9.0
same,Herbicidal rating ABUTH,ABUTH (Velvetleaf) [1]; rate 0.0315 kg/ha,9.0
same,Herbicidal rating ABUTH,ABUTH (Velvetleaf) [1]; rate 0.0630 kg/ha,9.0
same,Herbicidal rating IPOHE,[2]; rate 0.0158 kg/ha,9.0
same,Herbicidal rating IPOHE,[2]; rate 0.0315 kg/ha,9.0
same,Herbicidal rating IPOHE,[2]; rate 0.0630 kg/ha,9.0
same,Herbicidal rating SETVI,"SETVI (Foxtail, Green); rate 0.0158 kg/ha",4.0
same,Herbicidal rating SETVI,"SETVI (Foxtail, Green); rate 0.0315 kg/ha",6.0
same,Herbicidal rating SETVI,"SETVI (Foxtail, Green); rate 0.0630 kg/ha",7.0
same,Herbicidal rating GLXMAW,[3]; rate 0.0158 kg/ha,5.0
same,Herbicidal rating GLXMAW,[3]; rate 0.0315 kg/ha,5.5
same,Herbicidal rating GLXMAW,[3]; rate 0.0630 kg/ha,6.0
same,Herbicidal rating ZEAMX,"ZEAMX (Corn, Field); rate 0.0158 kg/ha",5.0
same,Herbicidal rating ZEAMX,"ZEAMX (Corn, Field); rate 0.0315 kg/ha",6.0
same,Herbicidal rating ZEAMX,"ZEAMX (Corn, Field); rate 0.0630 kg/ha",6.5
same,Preemergence herbicidal rating ABUTH,ABUTH (Velvetleaf) [4]; rate 0.0156 kg/ha,0.0
same,Preemergence herbicidal rating ABUTH,ABUTH (Velvetleaf) [4]; rate 0.0313 kg/ha,0.0
same,Preemergence herbicidal rating ABUTH,ABUTH (Velvetleaf) [4]; rate 0.0625 kg/ha,4.0
same,Preemergence herbicidal rating ABUTH,ABUTH (Velvetleaf) [4]; rate 0.1250 kg/ha,8.0
same,Preemergence herbicidal rating ABUTH,ABUTH (Velvetleaf) [4]; rate 0.2500 kg/ha,9.0
same,Preemergence herbicidal rating AMBEL,"AMBEL (Ragweed, Common); rate 0.0156 kg/ha",0.0
same,Preemergence herbicidal rating AMBEL,"AMBEL (Ragweed, Common); rate 0.0313 kg/ha",0.0
same,Preemergence herbicidal rating AMBEL,"AMBEL (Ragweed, Common); rate 0.0625 kg/ha",0.0
same,Preemergence herbicidal rating AMBEL,"AMBEL (Ragweed, Common); rate 0.1250 kg/ha",0.0
same,Preemergence herbicidal rating AMBEL,"AMBEL (Ragweed, Common); rate 0.2500 kg/ha",1.0
same,Preemergence herbicidal rating CASOB,CASOB (Sicklepod); rate 0.0156 kg/ha,0.0
same,Preemergence herbicidal rating CASOB,CASOB (Sicklepod); rate 0.0313 kg/ha,0.0
same,Preemergence herbicidal rating CASOB,CASOB (Sicklepod); rate 0.0625 kg/ha,0.0
same,Preemergence herbicidal rating CASOB,CASOB (Sicklepod); rate 0.1250 kg/ha,0.0
same,Preemergence herbicidal rating CASOB,CASOB (Sicklepod); rate 0.2500 kg/ha,9.0
same,Preemergence herbicidal rating IPOHE,[5]; rate 0.0156 kg/ha,0.0
same,Preemergence herbicidal rating IPOHE,[5]; rate 0.0313 kg/ha,0.0
same,Preemergence herbicidal rating IPOHE,[5]; rate 0.0625 kg/ha,0.0
same,Preemergence herbicidal rating IPOHE,[5]; rate 0.1250 kg/ha,4.0
same,Preemergence herbicidal rating IPOHE,[5]; rate 0.2500 kg/ha,9.0
same,Preemergence herbicidal rating ECHCG,ECHCG (Barnyardgrass); rate 0.0156 kg/ha,0.0
same,Preemergence herbicidal rating ECHCG,ECHCG (Barnyardgrass); rate 0.0313 kg/ha,0.0
same,Preemergence herbicidal rating ECHCG,ECHCG (Barnyardgrass); rate 0.0625 kg/ha,0.0
same,Preemergence herbicidal rating ECHCG,ECHCG (Barnyardgrass); rate 0.1250 kg/ha,0.0
same,Preemergence herbicidal rating ECHCG,ECHCG (Barnyardgrass); rate 0.2500 kg/ha,1.0
same,ECHORC herbicidal effect rating,[6]; 0.0313 kg/ha,0.0
same,ECHORC herbicidal effect rating,[6]; 0.0625 kg/ha,0.0
same,ECHORC herbicidal effect rating,[6]; 0.1250 kg/ha,0.0
same,ECHORC herbicidal effect rating,[6]; 0.2500 kg/ha,0.0
same,CYPSE herbicidal effect rating,CYPSE (Flatsedge); 0.0313 kg/ha,0.0
same,CYPSE herbicidal effect rating,CYPSE (Flatsedge); 0.0625 kg/ha,0.0
same,CYPSE herbicidal effect rating,CYPSE (Flatsedge); 0.1250 kg/ha,0.0

# Source: US20020137929A1, “1 - (3-heterocyclylphenyl) isothiourea, -isourea, -guanidine and -amidine herbicidal agents” (Intellectual Property Department, BASF Aktiengesellschaft, priority 1998, published 2002)
